Laboratory results published in PubChem BioAssay AID449750 (Broad Institute, 2010).
The source made the active and inactive calls. How the calls were made is not given here.

assay: non-covalent RecA intein splicing inhibitors, dose response, biochemical, cell-free, fluorescence, secondary screen (AID 449750)

SMILES	AC50
O=C(Cc1cc(=O)[nH][nH]1)N/N=C/C=C/c1ccccc1	20.8 µM
Cc1ccc2nc(N/N=C\c3ccc([N+](=O)[O-])o3)nc(-c3ccccc3)c2c1	> 38 µM (inactive)
Cc1ccc2c(c1)c1c(n2CC(O)CN2CCCCCC2)CCCC1 (configuration not stated)	> 38 µM (inactive)
COc1ccc(OC)c(N2C(=O)C(Cl)=C(N3CCOCC3)C2=O)c1	> 38 µM (inactive)
O=c1[nH]c(Nc2ccc(F)cc2)cc2ccccc12	2.58 µM
CCOC1=C/C(=C/c2c(N)n3oc(C)cc3nc2=O)C=CC1=O	> 38 µM (inactive)
Cc1ccc(C)c(S(=O)(=O)/N=C2\C=C(NS(=O)(=O)c3ccccc3)C(=O)c3ccccc32)c1	2.79 µM
CCc1ccc(C2C(C#N)=C(N)C(C#N)(C#N)C3=CCC(C(C)(C)C)CC32)cc1 (configuration not stated)	> 38 µM (inactive)
COc1ccc(S(=O)(=O)/N=C2\C=C(NS(=O)(=O)c3ccccc3)C(=O)c3ccccc32)cc1	2.95 µM
O=C(CN1C(=O)S/C(=C\C=C\c2ccccc2)C1=O)Nc1ccccc1C(=O)O	14.1 µM
CC1=NNC(=O)C1C(c1ccccc1)C1C(=O)NN=C1C (configuration not stated)	6.67 µM
CC[C@@H](CO)NC(=O)[C@@H]1C=C2c3cccc4c3c(cn4C)C[C@H]2N(C)C1	> 38 µM (inactive)
COC(=O)c1sc(-c2ccc(C(C)(C)C)cc2)cc1NC(=O)/C=C/C(=O)O	5.71 µM
CCOc1ccccc1C1C(C#N)=C(N)Nc2onc(-c3ccccc3)c21 (configuration not stated)	33.4 µM
Cc1ccc(CNC(=O)c2ccc(N(C)S(=O)(=O)c3ccccc3)cc2)cc1	> 38 µM (inactive)
CCOC(=O)N1C(=O)[C@](c2ccc(Cl)cc2)(C(C)C)N1C(=O)OCC	1.75 µM
O=C(O)c1ccccc1-c1ccccc1C(=O)Nc1ccc(-c2nc3cc(Cl)ccc3o2)cc1	9.29 µM
O=C1C(Cl)=C(N2CCOCC2)C(=O)N1c1cccc(C(F)(F)F)c1	> 38 µM (inactive)
Cc1ccc(Sc2ncnc3onc(C)c23)cc1	> 38 µM (inactive)
COCc1[nH]nc2c1C(c1cccc(OC)c1)C(C#N)=C(N)O2 (configuration not stated)	> 38 µM (inactive)
COCCOC(=O)C1=C(C)N=C2SCCC(=O)N2C1c1ccc(OC(=O)c2ccco2)cc1 (configuration not stated)	> 38 µM (inactive)
O=C1Cc2ccccc2C(=O)N1Cc1ccccc1	> 38 µM (inactive)
CCc1ccc(N2C(=O)C(Cl)=C(N3CCOCC3)C2=O)cc1	> 38 µM (inactive)
CSc1nnc(NC(=O)c2nc(S(=O)(=O)Cc3ccccc3F)ncc2Cl)s1	> 38 µM (inactive)
C=CS(=O)c1sc(Cl)c(N2CCOCC2)c1[N+](=O)[O-] (configuration not stated)	> 38 µM (inactive)
Cc1ccc(S(=O)(=O)NCC2CCC(C(=O)NCCCN3CCOCC3)CC2)cc1 (configuration not stated)	> 38 µM (inactive)

SMILES	AC50
O=C(CSc1nc2ccccc2nc1SCC(=O)N1CCOCC1)N1CCOCC1	> 38 µM (inactive)
CC(C)c1[nH]nc2c1C(c1ccco1)C(C#N)=C(N)O2 (configuration not stated)	> 38 µM (inactive)
CSc1nc(-c2ccccc2)nn1C(=O)c1ccc(Cl)cc1	> 38 µM (inactive)
O=C(CCl)N(c1ccccc1)c1ccccc1	5.75 µM
O=C(CCl)N(C/C=C/c1ccccc1)c1ccc2c(c1)OCCO2	1.12 µM
CC(C)=CCC1=C(OCC(=O)O)C(=O)c2ccccc2C1=O	10.3 µM
Cc1ccc2c(c1)-c1c(ssc1=S)C(C)(C)N2C(=O)CSC1=NCCS1	32.5 µM
Cc1ccc(N2C(=O)NC(=O)/C(=C/c3ccc(OC(=O)c4cccs4)cc3)C2=O)cc1	5.9 µM
COCC(C)NC(=O)CCS(=O)(=O)c1nc(-c2ccc(OC)cc2)cc(C(F)(F)F)n1 (configuration not stated)	> 38 µM (inactive)
CCCCCCCCCCOC(=O)Cn1c(COc2ccc(C)cc2)[n+](C)c2ccccc21	8.88 µM
Cc1ccc(S(=O)(=O)c2c(N)n(CCC(C)C)c3nc4ccccc4nc23)cc1	5.3 µM
Cc1ccc(Sc2c(C)[nH]n(C(C)(C)C)c2=O)cc1	> 38 µM (inactive)
CC(C)c1nnc(NC(=O)CCS(=O)(=O)c2nc(-c3cccs3)cc(C(F)(F)F)n2)s1	> 38 µM (inactive)
CCCCCc1c2c(cc(O)c1C(=O)O)OC(=O)c1c(cc(OC)cc1C(=O)CCCC)O2	8.72 µM
Cc1cc(F)ccc1S(=O)(=O)N(C(=O)c1ccncc1)c1ccc(OC(=O)c2ccncc2)cc1	> 38 µM (inactive)
Cc1ccccc1N1C(=O)C(Cl)=C(N2CCOCC2)C1=O	> 38 µM (inactive)
COc1ccc(CNC(=O)c2nc(S(=O)(=O)Cc3ccccc3)ncc2Cl)cc1	> 38 µM (inactive)
COc1ccc(C(=O)c2c(C(F)(F)F)oc3c2C(=O)c2ccccc2C3=O)cc1	0.93 µM
O=C(CCl)N1c2ccccc2CCc2ccccc21	3.76 µM
CC1=NN(c2ccccc2)C(=O)C1=C(C)C	15.9 µM
O=C(/C=C/c1ccc(O)cc1)c1ccc(NC2=C(N3CCCCC3)C(=O)c3ccccc3C2=O)cc1	2.06 µM
COc1ccc(C(=O)c2c(C(F)(F)F)oc3c2C(=O)c2ccccc2C3=O)cc1OC	> 38 µM (inactive)
COC(=O)c1ccccc1-c1ccc(C(c2c(C)[nH][nH]c2=O)c2c(C)[nH][nH]c2=O)o1	3.62 µM
COc1ccc(-c2cc(=O)n(-c3ccc([N+](=O)[O-])cc3)[nH]2)cc1	3.4 µM
Cc1cc(C(=O)c2ccc(Cl)cc2)c(NC(=O)CCl)s1	1.19 µM
O=C(CCl)Nc1c2c(nn1-c1ccccc1)CSC2	29.2 µM
